The text below walks through data of ChEMBL document CHEMBL1145045 (J Med Chem, 2003).

The structures appear in SMILES notation.

In general, EC50 refers to the concentration at which the effect is half-maximal. A higher EC50 goes with weaker potency.

This experiment deals with Major prion protein. Kind of experiment: Half maximal inhibition of Prion protein PrPsc formation was assayed in ScN2a cells. The class given is cell-based.
Compound `CN(C)CCCN1c2ccccc2Sc2ccccc21` [PROMAZINE] registered an EC50 of 5 µM.

The compound `CCN(CC)CCCC(C)Nc1ccnc2cc(Cl)ccc12` (stereo not drawn) [CHLOROQUINE] showed a 50% effective concentration (EC50) of 4 µM.

As to `c1ccc2nc3ccccc3nc2c1` [PHENAZINE], the concentration giving a half-maximal response (EC50) was over 10 µM.

As to `CC(=O)c1ccc2c(c1)N(CCCN(C)C)c1ccccc1S2` [ACEPROMAZINE], the EC50 came out at 5 µM.

The compound `NC(=O)N1c2ccccc2C=Cc2ccccc21` [CARBAMAZEPINE] had an EC50 of over 10 µM.

For the compound `O=C(CCCN1CCC(O)(c2ccc(Cl)cc2)CC1)c1ccc(F)cc1` [HALOPERIDOL], the EC50 is over 10 µM.

As to `CC(CN1c2ccccc2Sc2ccccc21)N(C)C` (stereo not drawn) [PROMETHAZINE], the EC50 amounted to 8 µM.

The compound `CN(C)CCCN1c2ccccc2Sc2ccc(Cl)cc21` [CHLORPROMAZINE] came in with an EC50 of 2 µM. Compared with the last compound, the EC50 is about 4-fold lower.
